This passage reports IC50 results from ChEMBL document CHEMBL1136030, “Synthesis and antiaggregant properties of Stabilized analogues of polyunsaturated fatty acid metabolites” (Bioorg Med Chem Lett, 2002).

The species entered for test [1] is Oryctolagus cuniculus. Briefly: Anti-platelet activity was measured by studying their antagonist effects on rabbit platelets aggregated with U-46,619. The format is functional.
The species entered for test [2] is Homo sapiens. Briefly: Anti-platelet activity was measured by studying their antagonist effects on human platelets aggregated with collagen. The format is functional.

In test [1], `CCCCC/C=C\C[C@@H](O)/C=C/C=C\C/C=C\CCCC(=O)O` came in with an IC50 of 4000 nM.
Regarding `CCCCCC(O)c1cccc(CCCCCC(=O)O)c1` (stereo not given), the concentration for half-maximal inhibition (IC50) was determined as 27000 nM in test [2] and 500 nM in test [1].
Regarding `CCCCCC(O)c1cccc(/C=C\CCCC(=O)O)c1` (stereo not given), the IC50 in test [2] amounted to 20000 nM; in test [1], 900 nM.
Turning to `CCCCCC(O)c1cccc(/C=C\CCCC(=O)O)n1` (stereo not given), the values for the IC50 in test [2] and in test [1] were 57000 nM and 1600 nM, respectively.
For the compound `CCCCCC(=O)c1cccc(/C=C\CCCC(=O)O)c1`, the IC50 in test [2] came out at 7000 nM; in test [1], 500 nM.
In turn, `O=C(O)CCn1c2c(c3ccccc31)CC(NS(=O)(=O)c1ccc(F)cc1)CC2` (single isomer, unassigned) [RAMATROBAN] came in with an IC50 in test [2] of 50 nM.

One may read the IC50 as the midpoint of a concentration-inhibition curve. A high value points to lower potency.
